# Experimental data from patent US20150038430A1, “THERAPEUTIC PEPTIDOMIMETIC MACROCYCLES” (AILERON Therapeutics, Inc., priority 2008, published 2015).
# pEC50: −log10 of the molar value. Numbered stars: 1 amine (or outer) side, 2 acyl side, 3 side chain; on linkers, the order of the positions; unused ones are H or OH. Bridge positions count the residues as written; N and C are the ends. Square brackets hold non-standard residues; d marks the D form. Peptide text beside a SMILES is read from it. ξ: configuration not given here. ξαMeNle(6-ylidene) = CC(CCCC=[*:3])(N[*:1])C(=O)[*:2]; Nle = CCCC[C@H](N)C(=O)O
# Assays:
# OVCAR8 = format: cell-based, human; settings: 24 h
# How it was run: (§1)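 Cells (4000/well) in Opti-MEM were exposed to macrocycles at final 0.6–20 μM serum-free or 1.5–50 μM in 2% human serum for 24 h at 37° C. CellTiter-Glo luminescence was expressed as percent of DMSO-only control, in duplicate, giving EC50 values.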
# PC3 = format: cell-based, human; settings: 24 h
# How it was run: as §1
# SEMK2 = format: cell-based, human; settings: 24 h
# How it was run: as §1
# A375 = format: cell-based, human; settings: 24 h
# How it was run: as §1
# Jurkat = format: cell-based, human; settings: 24 h
# How it was run: as §1
# DHL-6 = format: cell-based, human; settings: 24 h
# How it was run: as §1
# MM1S = format: cell-based, human; settings: 24 h
# How it was run: as §1
# NCI-H82 (SCLC-MCL1+) = format: cell-based, human; settings: 24 h
# How it was run: as §1
# Raji = format: cell-based, human; settings: 24 h
# How it was run: as §1
# RS4;11 = format: cell-based, human; settings: 24 h
# How it was run: as §1
# MDA-MB231-Met = format: cell-based, human; settings: 24 h
# How it was run: as §1
# Molt-4 = format: cell-based, human; settings: 24 h
# How it was run: as §1
# NCI-H128 = assay: MTT cell viability assay, NCI-H128; format: cell-based, human; settings: 20 μM, MTT 48 hrs, FIG. 1
# Protocol: (§2) Cell viability assays shown in FIGS. 1-32 were performed according to the following protocol. Tumor cell lines were grown in specific serum-supplemented media (growth media) as necessary. A day prior to the initiation of the study, cells were plated at optimal cell density (15,000 to 25,000 cells/well) in 200 μl growth media in microtiter plates. The next day, cells were washed twice in serum-free/phenol red-free RPMI complete media (assay buffer) and a final volume of 100 μl assay buffer was added to each well. Human peripheral blood lymphocytes (hPBLs) were isolated from Buffy coats (San Diego Blood Bank) using Ficoll-Paque gradient separation and plated on the day of the experiment at 25,000 cells/well.
# (§3) Peptidomimetic macrocycles were diluted from 1 mM stocks (100% DMSO) in sterile water to prepare 400 μM working solutions. The peptidomimetic macrocycles and controls were then diluted 10 or […] or alternatively serially two-fold diluted in assay buffer in dosing plates to provide concentrations of either 40 and 20 μM or between 1.2 and 40 μM, respectively. […]
# (§4) Towards the end of the 4 hour incubation time, 22 μl FBS was added to each well for a total concentration of 10% FBS. […] At the end of the incubation period, MTT assay was performed according to manufacturer's instructions (Sigma, catalog #M2128) and absorbance was measured at 560 nm using Dynex Opsys MR Plate reader. […]
# Bcl-2 = assay: Kd, μM | Bcl-2
# Text: Table printed on a drawing sheet, Figure 27
# Head of the field: Kd, μM | Bcl-2
# First copying reader's note: The last row (ABT-737) is a small-molecule comparator; the three plots above the table are not copied.
# Where the first naming reader finds the target: head: Kd, μM | Bcl-2
# activated hPBLs = assay: BrdU cell proliferation assay; format: cell-based, human; settings: hPBLs activated by PMA+ionomycin+LPS; 5 or 20 μM, 48 hrs; compared with 1 μM Rapamycin
# Protocol: […] 1 μM Rapamycin was used as a positive control to inhibit BrdU incorporation. BrdU incorporation was assayed by ELISA according to manufacturer's instructions (Roche, catalog number 11444611001).
# U251 = assay: MTT cell viability assay, U251; format: cell-based, human; settings: 20 μM, MTT 48 hrs, FIG. 1
# Protocol: as §2, §3, §4
structure (smiles),measurement,setting,value
CCCC[C@H](NC(=O)C1(C)CCCC=CCCCC(C)(NC(=O)[C@H](C)NC(=O)[C@H](CC(C)C)NC(=O)[C@H](Cc2c[nH]cn2)NC(=O)[C@H](CCCNC(=N)N)NC(=O)[C@H](C)NC(=O)[C@@H](NC(=O)[C@H](CC(N)=O)NC(=O)[C@H](CCCNC(=N)N)NC(=O)[C@@H](NC(=O)[C@@H](NC(=O)[C@H](CC(=O)O)NC(C)=O)[C@@H](C)CC)[C@@H](C)CC)[C@@H](C)CC)C(=O)N[C@@H](C(C)C)C(=O)NCC(=O)N[C@@H](CC(=O)O)C(=O)N1)C(=O)N[C@@H](CC(=O)O)C(=O)N[C@@H](CCCNC(=N)N)C(=O)N[C@@H](CO)C(=O)N[C@H](C(N)=O)[C@@H](C)CC (stereo partly shown) [SP-1] (Ac-DIIRNIARHLA[ξαMeNle(6-ylidene)]VGD[ξαMeNle(6-ylidene)][Nle]DRSI-NH2; staple 12-16),pEC50,OVCAR8,4.70
same,pEC50,PC3,4.70
same,pEC50,SEMK2,5.00
same,pEC50,A375,4.96
same,pEC50,Jurkat,5.60
same,pEC50,DHL-6,5.15
same,pEC50,MM1S,5.46
same,pEC50,NCI-H82 (SCLC-MCL1+),5.60
same,pEC50,Raji,4.89
same,pEC50,RS4;11,< 4.70
same,pEC50,MDA-MB231-Met,5.01
same,pEC50,Molt-4,5.37
same,apoptosis of NCI-H128 (SCLC),NCI-H128,induced apoptosis
same,Kd,Bcl-2,1 µM
same,blocking the proliferation of activated hPBLs (BrdU incorporation),activated hPBLs,as effective as rapamycin
same,sensitivity of U251 (glioma),U251,resistant
